In US12564600B2, “System for enhancing therapeutic compliance of the anti-cancer compound E7766” (Eisai R&D Management Co., Ltd., priority 2019, dated 2026):
In brackets after ≈: the same amount, converted by molar mass. Entries after “also recorded” stand apart in the source; their conditions may differ.

Legend:
[1] = Physicochemical properties and ECCS classification of Compound 1
Permeability (Papp) = type: in vitro ADME; conditions: not told
[2] = Pharmacokinetics and excretion in bile duct-cannulated dog, single IV dose; type: in vivo, beagle dogs; conditions: IV 0.075 mg/kg, up to 48 h, Mean SD
Procedure: Male bile duct-cannulated beagle dogs or Sprague Dawley rats (n=3) were given a single intravenous (IV) dose of Compound 1. Plasma, urine and bile samples were collected from the dogs, and blood, urine, bile and feces samples were collected from rats up to 48 hours post-dose. Blood samples were kept on wet ice after collection until centrifuged for separation of plasma. Urine samples were collected at intervals 0 to 4, 4 to 8, 8 to 24, and 24 to 48 hours post-dose into collection tubes on wet ice. Bile samples were collected at intervals 0 to 4, 4 to 8, 8 to 24, and 24 to 48 hours post-dose into collection tubes cooled via an ice pack. Feces samples for rats were collected over 0 to 24 hour interval. All samples were transferred into properly labeled tubes and stored at −70° C. until pending shipment to the bioanalytical facility. All samples were analyzed using LC-MS/MS and the pharmacokinetic parameters of Compound 1 were determined with Phoenix WinNonlin using non-compartmental analysis.
Data are shown as Mean SD. NC indicates Not Collected.

OATP1B1/1B3 = experiment: Pharmacokinetics in humanized OATP1B1/1B3 mice with or without rifampin co-dose; type: in vivo; conditions: 0.5 mg/kg IV, rifampin 30 mg/kg
Procedure: Age-matched Oatp1a/1b cluster-knockout, OATP1B1- or OATP1B3-knockin mice humanized on the Oatp1a/1b-knockout background, and wild-type FVB male mice were purchased from Taconic Biosciences (Hudson, N.Y., USA). Mice were between 8 and 10 weeks of age (22-34 g) at the time of study. Compound 1 was administered at a dose of 0.5 mg/kg coadministered with either vehicle or rifampin (30 mg/kg). Blood and liver samples were collected at 0.083, 0.25, 0.5, 1, 1.5, 3, 6 hours. Plasma was isolated from blood samples by centrifugation. All samples were stored at −80° C. until bioanalysis.
Compound 1 was dosed via intravenous administration to WT, humanized, and KO mice. Blood, urine, and feces were collected from the animals over 6 hours. Blood spots were collected and expelled FTA™ DMPK-B DBS Card (GE Healthcare, Life Sciences, Whatman™) within the appropriate sample circle. Pharmacokinetics of Compound 1 in WT animals was also assessed after co-administration with rifampin. Liver samples were also collected from WT animals and frozen until analysis. All samples were analyzed using LC-MS/MS and the pharmacokinetics parameters of Compound 1 were determined with Phoenix WinNonlin using non-compartmental analysis.
FIG. 2A through 2C show an in vivo PK profile and elimination of Compound 1 with and without a co-dose of the Oatp/OATP inhibitor Rifampin in different mouse models.

OATP1B3 = molecular target: T1, OATP1B3 (Homo sapiens, UniProt Q9NPD5); experiment: Uptake in HEK293 cells overexpressing OATP1B3; type: in vitro ADME
T1 construct: expressed in transfected cells; host or cells: HEK293-FT
T1 sequence (Q9NPD5 1-702): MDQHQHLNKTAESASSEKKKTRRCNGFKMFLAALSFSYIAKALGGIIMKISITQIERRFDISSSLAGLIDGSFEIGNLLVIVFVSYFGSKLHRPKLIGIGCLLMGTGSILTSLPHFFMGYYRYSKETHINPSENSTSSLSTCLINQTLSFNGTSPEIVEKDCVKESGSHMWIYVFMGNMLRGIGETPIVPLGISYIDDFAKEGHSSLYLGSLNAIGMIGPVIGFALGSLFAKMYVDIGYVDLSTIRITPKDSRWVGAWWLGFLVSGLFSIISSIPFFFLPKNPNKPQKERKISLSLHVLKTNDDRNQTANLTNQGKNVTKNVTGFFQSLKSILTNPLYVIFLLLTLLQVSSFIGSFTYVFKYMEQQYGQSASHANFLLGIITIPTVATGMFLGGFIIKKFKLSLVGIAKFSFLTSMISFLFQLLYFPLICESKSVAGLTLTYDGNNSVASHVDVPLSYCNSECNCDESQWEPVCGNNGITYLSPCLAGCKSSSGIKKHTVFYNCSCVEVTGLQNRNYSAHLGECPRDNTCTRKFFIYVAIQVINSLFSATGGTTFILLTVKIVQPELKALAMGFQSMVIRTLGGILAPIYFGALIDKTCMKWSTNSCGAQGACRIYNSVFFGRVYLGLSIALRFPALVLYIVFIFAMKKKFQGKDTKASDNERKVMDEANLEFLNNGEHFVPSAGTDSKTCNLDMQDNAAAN
Procedure: TransportoCells™ (Corning, N.Y., USA) expressing OATP2B1, NTCP, and HEK293-FT cells stably transfected with the vector containing OATP1B1 cDNA or OATP1B3 cDNA or empty vector were grown in a Dulbecoo's modified Eagle's medium fortified with 10% fetal calf serum and 2 mmol/L sodium butyrate (for NTCP only) in a humidified incubator at 37° C. and 5% CO2. Cells were harvested at 90% confluence and then seeded in poly-D-lysine-coated 24-well 24 h prior to transporter assay. Cells were washed twice and pre-incubated with 200 μL of pre-warmed Krebs-Henseleit buffer. After pre-incubation, cells were incubated with 3 or 10 μmol L-1 of Compound 1 in presence or absence of 100 μmol L-1 of inhibitors (Rifamycin SV for OATP2B1, Troglitazone for NTCP, Rifamycin for OATP1B1 and OATP1B3). The transport reaction was terminated by aspirating the buffer from the wells at designated time. After washing three times with 200 μL of ice-cold Krebs-Henseleit buffer, the cells were lysed and the resulting cellular lysates were analyzed by LC-MS/MS.
Concentration-dependent uptake of Compound 1 via OATP1B1 and OATP1B3 were conducted with a concentration range of 0.25-100 μmol L-1 under linear uptake. All experiments were run in triplicates.

## O=[P@]1(S)OC[C@H]2O[C@@H]3[C@H](F)[C@@H]2O[P@](=O)(S)OC[C@H]2O[C@H]([C@H](F)[C@@H]2O1)n1cnc2c(ncnc21)NC/C=C/CNc1ncnc2c1ncn23 [Compound 1]
[1]
  solubility: 150 µM (≈ 112 µg/mL)
[1]; read-out: measured Log D
  logD: 1.31
[1]; read-out: measured pKa
  pKa: 3.41
Permeability (Papp)
  Papp: 0.36 ×10⁻⁶ cm/s
[2]
  % Ae, bile: 87.9 ± 30.5%
OATP1B1/1B3
  increase in plasma concentration/exposure in the presence of rifampin: 4.5 fold
OATP1B3; HEK293 cells overexpressing human OATP1B3
  substrate of OATP1B3: responsible for hepatic uptake; also recorded: substrate
OATP1B3; Simcyp input parameter, Table 3
  Jmax (pmol/min/million cells), OATP1B3: 24.39 pmol/min/million cells
OATP1B3; human, HEK293-FT cells stably transfected with OATP1B3 cDNA, Simcyp input parameter, Table 3
  Km: 4 µM
OATP1B3; phenotyping studies
  contribution of OATP1B3 versus OATP1B1 in hepatobiliary clearance: predominant contribution of OATP1B3 over OATP1B1
